Source: patent US11477985B2, “Herbicidal mixtures comprising L-glufosinate or its salt and at least one photosynthesis inhibitor” (BASF SE, priority 2017, dated 2022)

What was measured:
Type in all cases: in vivo
[1] = tested on: Avena fatua; assay: Post emergence treatment, greenhouse pot test, herbicidal activity against AVEFA
Source text: (§1) Synergism can be described as an interaction where the combined effect of two or more compounds is greater than the sum of the individual effects of each of the compounds. The presence of a synergistic effect in terms of percent control, between two mixing partners (X and Y) can be calculated using the Colby equation (Colby, S. R., 1967, Calculating Synergistic and
(§2) When the observed combined control effect is greater than the expected (calculated) combined control effect (E), then the combined effect is synergistic.
(§3) However, the weed control afforded by the compounds, mixtures or compositions is not limited to these species. The analysis of synergism or antagonism between the mixtures or compositions was determined using Colby's equation.
(§4) The culture containers used were plastic flowerpots containing loamy sand with approximately 3.0% of humus as the substrate. The seeds of the test plants were sown separately for each species and/or resistant biotype. For the pre-emergence treatment, the active ingredients, which had been suspended or emulsified in water, were applied directly after sowing by means of finely distributing nozzles. The containers were irrigated gently to promote germination and growth and subsequently covered with transparent plastic hoods until the plants had rooted. This cover caused uniform germination of the test plants, unless this had been impaired by the active ingredients. For the post-emergence treatment, the test plants were first grown to a height of 3 to 15 cm, depending on the plant habit, and only then treated with the active ingredients which had been suspended or emulsified in water. For this purpose, the test plants were either sown directly and grown in the same containers, or they were first grown separately as seedlings and transplanted into the test containers a few days prior to treatment. Depending on the species, the plants were kept at 10-25° C. or 20-35° C., respectively. The test period extended to 20 days after treatment. During this time, the plants were tended, and their response to the individual treatments was evaluated. […]

[2] = tested on: Setaria viridis; assay: Post emergence treatment, greenhouse pot test, herbicidal activity against SETVI; details: scale 0 to 100
Source text: as §1, §2, §3, §4

[3] = tested on: Abutilon theophrasti; assay: Post emergence treatment, greenhouse pot test, herbicidal activity against ABUTH; details: scale 0 to 100
Source text: as §1, §2, §3, §4

`CP(=O)(O)CC[C@H](N)C(=O)O` [L-Glufosinate, (2S)-2-amino-4-[hydroxy(methyl)phosphinoyl]butyric acid] was tested, and the “Herbicidal activity against AVEFA, Found” value ([1]; L-Glufosinate 300 g ai/ha alone, scale 0 to 100, mean of two replications) was 20, the “Herbicidal activity against SETVI, Found” value ([2]; L-Glufosinate 75 g ai/ha alone) was 0 and the “Herbicidal activity against SETVI, Found” value ([2]; L-Glufosinate 150 g ai/ha alone) was 70. The “Herbicidal activity against ABUTH, Found” value ([3]; L-Glufosinate 75 g ai/ha alone) was 0.

With `CN(C)C(=O)Nc1ccc(Cl)c(Cl)c1` [Diuron, diuron] the “Herbicidal activity against AVEFA, Found” value ([1]; Diuron 125 g ai/ha alone, scale 0 to 100) was 20 and the “Herbicidal activity against AVEFA, Found” value ([1]; Diuron 250 g ai/ha alone, scale 0 to 100) was 30.

For `CN(C)C(=O)Nc1cccc(C(F)(F)F)c1` [Fluometuron, fluometuron], the “Herbicidal activity against ABUTH, Found” value ([3]; Fluometuron 125 g ai/ha alone) was 0 and the “Herbicidal activity against ABUTH, Found” value ([3]; Fluometuron 250 g ai/ha alone) was 20.

In the case of `O=C(Nc1ccccc1)Nc1cnns1` [Thidiazuron, thiadizuron], the “Herbicidal activity against SETVI, Found” value ([2]; Thidiazuron 50 g ai/ha alone) is reported as 0.
